Measurements taken from article PMC5538626, “Structural and functional analysis of the GABARAP interaction motif (GIM)” (EMBO Reports, 2017).
Ends that are not written are not given here.

Key:
LC3C = molecular target: T1, LC3C (Homo sapiens, UniProt Q9BXW4); test: ITC titration of PLEKHM1-LIR peptide into LC3C; assay type: binding; settings: 25°C, pH 7.0
T1 construct: modified Ub-leader (ubiquitin fusion leader) (N); made in house; host or cells: E. coli NEB T7 Express
Experimental: (§1) The genes for the truncated LC3A^2–121, LC3C^8–125, GABARAP^2–117 and GABARAP‐L1^2–117 proteins were cloned into pET30ΔSE vector between the BamHI and XhoI sites using previously established protocols 38. The chimeric constructs of the PLEKHM1‐LIR attached to the LC3A, GABARAP and GABARAP‐L1 proteins were prepared by inserting the oligonucleotide sequence corresponding to the PLEKHM1‐LIR peptide (P^629[…]^638) and glycine–serine linker into the BamHI site of the pET30ΔSE vector, placing the PLEKHM1‐LIR at the N‐terminal of the mature chimeric protein (similar to 31, 38). For the expression of human LC3 and GABARAP proteins for ITC and NMR experiments, plasmids with appropriate modified Ub‐leaders in pET vectors were used 39. Gene, encoding PLEKHM1‐LIR peptide, was ordered as synthetic oligonucleotides (Eurofins Genomics GmbH) and cloned into the pET39_Ub63_ vector 39 by NcoI–BamHI restriction sites. After TEV cleavage, the resulting peptide has the amino acid sequence GAMG‐P^629[…]^642, where the first four residues (GAMG) are the cloning artefact.
(§2) The chimeric constructs were expressed as a His‐tag fusion protein in E. coli BL21(DE3) cells. The cells were induced with 0.3 mM IPTG at OD600 0.6 for 16 h at 26°C. The cell pellets were lysed using mechanical sonication in lysis buffer (20 mM Tris–HCl pH 9.0, 100 mM NaCl, 10 mM imidazole, supplemented with 0.1% Triton X‐100). The proteins were purified using Ni‐NTA beads (GE Healthcare) and the His‐tag was cleaved using thrombin (Invitrogen) at room temperature for 16 h. The last step was gel filtration chromatography using a Superdex S200/300 GL column (GE Healthcare). The proteins were concentrated using spin concentrators (Vivaspin). For ITC and NMR studies, the non‐labelled and stable isotopes labelled LC3 and GABARAP proteins were obtained based on the protocols described elsewhere 30, 39. Here, E. coli NEB T7 Express culture transformed with corresponding plasmids were grown till OD600 nm = 1.0 and protein expression was induced with 0.2 mM IPTG. The cultures were incubated at 25°C for 8–12 h before cell harvesting. Isolation and purification procedures were similar to those reported in Ref. 22, 40. Before experiments, all proteins and peptides were equilibrated with a buffer containing 50 mM Na2HPO4, 100 mM NaCl at pH 7.0, and supplied with 5 mM protease inhibitor cocktail.
(§3) The protocol for preparation of non‐labelled and ^13C,^15N‐labelled PLEKHM1‐LIR peptide was slightly modified to achieve highest yield of the peptide. The 50 ml M9 culture was inoculated with NEB T7 cell transformed with pET39_Ub63‐PLEKHM1‐LIR plasmid and grown overnight at 37°. The collected cells were resuspended in 2 l of either LB or M9 media contained 1.5 g ^15N‐labelled NH4Cl and 3.0 g of ^13C‐labelled glucose. The cultures were grown at 37° till A(600 nm) = 0.9 and supplied with 1 mM of IPTG to induce Ub63‐PLEKHM1‐LIR overexpression (3 h at 37°). After that cells were harvested by centrifugation, re‐suspended in buffer contained 50 mM Tris–HCl pH = 7.9, 200 mM NaCl, 5% glycerol, 0.1 mg/ml DNase A and 4 mM protease inhibitor cocktail. After cell lysis by French press, debris was removed by centrifugation and clear supernatant was applied onto the column contained Ni‐NTA Sepharose equilibrated with the loading buffer (50 mM Tris–HCl pH = 7.9, 250 mM NaCl, 1% glycerol and 20 mM imidazole). Elution was performed with 400 mM imidazole in the same buffer. An aliquot of pure Ub63‐PLEKHM1‐LIR fractions was further purified by gel filtration on Superdex75 26 × 60 column for control ITC and analytical size exclusion chromatography experiments, remaining fusion protein was processed with the TEV‐protease and PLEKHM1‐LIR peptide was purified to 95% purity by reverse Ni‐NTA chromatography and followed gel filtration on Superdex75 26 × 60 column. Peak maximum of peptide was detected at […] (void volume 115 ml). Pure peptide was concentrated in Amicon concentrators with cut‐off of 3 kDa (> 95% retention). […]

GABARAP-L2 = molecular target: T2, GABARAP-L2 (Homo sapiens, UniProt P60520); test: ITC titration of PLEKHM1-LIR peptide into GABARAP-L2; assay type: binding; settings: 25°C, pH 7.0
T2 construct: modified Ub-leader (ubiquitin fusion leader) (N); made in house; host or cells: E. coli NEB T7 Express
T2 sequence (P60520 whole entry, the tested form may be a part): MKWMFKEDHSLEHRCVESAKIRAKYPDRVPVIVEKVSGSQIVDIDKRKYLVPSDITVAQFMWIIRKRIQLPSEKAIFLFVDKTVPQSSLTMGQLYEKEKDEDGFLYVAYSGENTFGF
Experimental: as §1, §2, §3

[1] = test system: endogenous PLEKHM1:GABARAP complex; test: Peptide competition in immunoprecipitation of endogenous PLEKHM1; settings: Plekhm1 +/+ MEF lysate, 50 μM peptide, cells treated 4 h KU-0063794 (10 μM) + chloroquine (20 μM); Fig 2D
GABARAP proteins = test: ITC, GABARAP proteins (range); assay type: binding, human
Experimental: (§4) All titration experiments were performed at 25°C using a VP‐ITC microcalorimeter (Malvern Instruments Ltd, UK). The ITC data were analysed with the ITC‐Origin 7.0 software with a “one‐site” binding model. The peptides at concentrations of 0.4 mM were titrated into 0.020 mM LC3 and GABARAP proteins in 26 steps. The protein and peptide concentrations were calculated from the UV absorption at 280 nm by NanoDrop spectrophotometer (Thermo Fisher Scientific, DE, USA).

[2] = molecular target: LC3-subfamily of proteins; test: ITC, LC3-subfamily (range); assay type: binding, human
Experimental: as §4

GABARAP = molecular target: T3, GABARAP (Homo sapiens, UniProt O95166); test: ITC titration of PLEKHM1-LIR peptides into GABARAP; assay type: binding; settings: ITC; for ΔH: VP-ITC, one-site model, 0.4 mM peptide into 0.020 mM protein, 50 mM Na2HPO4, 100 mM NaCl; for K D of GABARAP lower compared to LC3B / specificity GABARAP over LC3B: GABARAP vs LC3B
T3 construct: modified Ub-leader (ubiquitin fusion leader) (N); made in house; host or cells: E. coli NEB T7 Express
T3 sequence (O95166 whole entry, the tested form may be a part): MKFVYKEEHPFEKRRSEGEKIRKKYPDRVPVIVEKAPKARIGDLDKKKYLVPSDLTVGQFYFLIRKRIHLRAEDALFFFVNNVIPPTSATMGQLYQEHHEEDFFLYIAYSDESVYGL
Experimental: as §1, §2, §3

[3] = VP-ITC, one-site model, 0.4 mM peptide into 0.020 mM protein, 50 mM Na2HPO4, 100 mM NaCl
[4] = 25°C, pH 7.0, listed as PLEKHM1-LIR

T1 sequence (Q9BXW4 whole entry, the tested form may be a part): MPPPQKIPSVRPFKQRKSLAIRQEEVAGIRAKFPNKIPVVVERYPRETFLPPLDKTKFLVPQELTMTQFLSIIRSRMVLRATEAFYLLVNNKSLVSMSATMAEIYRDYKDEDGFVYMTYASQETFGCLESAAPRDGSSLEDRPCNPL

Q: What does the source list for GAMGPQQEDEWVNVQYPD [PLEKHM1‐LIR WT]?
A: ΔH (LC3C; [3]): -8.3 ± 0.2 kcal/mol; KA (LC3C): 0.29 ± 0.02 ×10^6 M^−1; N (number of binding sites) (LC3C): 0.99 ± 0.02; ΔG (LC3C): -7.48 kcal/mol; ΔS (LC3C): −2.83 cal mol^−1 K^−1; −T × ΔS (LC3C): +0.84 kcal mol^−1; ΔH (GABARAP-L2; [3]): -6.1 ± 0.1 kcal/mol; KA (GABARAP-L2): 1.07 ± 0.03 ×10^6 M^−1; N (number of binding sites) (GABARAP-L2): 1.05 ± 0.01; ΔG (GABARAP-L2): -8.23 kcal/mol; ΔS (GABARAP-L2): +7.00 cal mol^−1 K^−1; −T × ΔS (GABARAP-L2): -2.09 kcal/mol; effect on endogenous PLEKHM1:GABARAP interaction [1]: blocked the interaction; Kd (GABARAP proteins): 550 to 770 nM; Kd [2]: 3500 to 6300 nM; ΔH (GABARAP; 25°C, pH 7.0): -10.6 ± 0.1 kcal/mol; ΔH (GABARAP; [4]): -10.60 ± 0.1 kcal/mol; KA (GABARAP; 25°C, pH 7.0): 1.8 ± 0.1 ×10^6 M^−1; N (number of binding sites) (GABARAP; 25°C, pH 7.0): 1.00 ± 0.01; ΔG (GABARAP; 25°C, pH 7.0): -8.54 kcal/mol; ΔS (GABARAP; 25°C, pH 7.0): −6.92 cal mol^−1 K^−1; −T × ΔS (GABARAP; 25°C, pH 7.0): +2.06 kcal mol^−1; KA (GABARAP; [4]): 1.8±0.1 ×10^6 M^−1; ΔG (GABARAP; [4]): -8.54 kcal/mol; ΔS (GABARAP; [4]): -6.92 cal mol^−1 K^−1; K D of GABARAP lower compared to LC3A (times) (GABARAP; GABARAP vs LC3A): approximately eight; K D of GABARAP lower compared to LC3B / specificity GABARAP over LC3B (GABARAP): 11 fold; K D of GABARAP lower compared to LC3B / specificity GABARAP over LC3B (GABARAP; listed as PLEKHM1‐LIR peptide): approximately 11 fold
